Each block holds one compound with its values, some of them ahead of it.
Assays:
[1] = molecular target: T1, Bromodomain-containing protein 4 (Homo sapiens, UniProt O60885); experiment: Induction of BRD4 degradation in human HEK293T cells at 10 uM measured at 6 hrs relative to control; assay type: cell-based
[2] = molecular target: T1, Bromodomain-containing protein 4; experiment: Induction of BRD4 degradation in human 231MFP cells; assay type: cell-based; conditions: 231mfp
[3] = molecular target: T1, Bromodomain-containing protein 4; experiment: Induction of BRD4 degradation in human HAP1 cells; assay type: cell-based
[4] = molecular target: T1, Bromodomain-containing protein 4; experiment: Induction of BRD4 degradation in human HEK293T cells; assay type: cell-based
[5] = molecular target: Folliculin-interacting protein 1 (Homo sapiens, UniProt Q8TF40); experiment: Inhibition of FNIP1 in human HEK293T cells; assay type: cell-based
Sequence of Folliculin-interacting protein 1 (Q8TF40 whole entry): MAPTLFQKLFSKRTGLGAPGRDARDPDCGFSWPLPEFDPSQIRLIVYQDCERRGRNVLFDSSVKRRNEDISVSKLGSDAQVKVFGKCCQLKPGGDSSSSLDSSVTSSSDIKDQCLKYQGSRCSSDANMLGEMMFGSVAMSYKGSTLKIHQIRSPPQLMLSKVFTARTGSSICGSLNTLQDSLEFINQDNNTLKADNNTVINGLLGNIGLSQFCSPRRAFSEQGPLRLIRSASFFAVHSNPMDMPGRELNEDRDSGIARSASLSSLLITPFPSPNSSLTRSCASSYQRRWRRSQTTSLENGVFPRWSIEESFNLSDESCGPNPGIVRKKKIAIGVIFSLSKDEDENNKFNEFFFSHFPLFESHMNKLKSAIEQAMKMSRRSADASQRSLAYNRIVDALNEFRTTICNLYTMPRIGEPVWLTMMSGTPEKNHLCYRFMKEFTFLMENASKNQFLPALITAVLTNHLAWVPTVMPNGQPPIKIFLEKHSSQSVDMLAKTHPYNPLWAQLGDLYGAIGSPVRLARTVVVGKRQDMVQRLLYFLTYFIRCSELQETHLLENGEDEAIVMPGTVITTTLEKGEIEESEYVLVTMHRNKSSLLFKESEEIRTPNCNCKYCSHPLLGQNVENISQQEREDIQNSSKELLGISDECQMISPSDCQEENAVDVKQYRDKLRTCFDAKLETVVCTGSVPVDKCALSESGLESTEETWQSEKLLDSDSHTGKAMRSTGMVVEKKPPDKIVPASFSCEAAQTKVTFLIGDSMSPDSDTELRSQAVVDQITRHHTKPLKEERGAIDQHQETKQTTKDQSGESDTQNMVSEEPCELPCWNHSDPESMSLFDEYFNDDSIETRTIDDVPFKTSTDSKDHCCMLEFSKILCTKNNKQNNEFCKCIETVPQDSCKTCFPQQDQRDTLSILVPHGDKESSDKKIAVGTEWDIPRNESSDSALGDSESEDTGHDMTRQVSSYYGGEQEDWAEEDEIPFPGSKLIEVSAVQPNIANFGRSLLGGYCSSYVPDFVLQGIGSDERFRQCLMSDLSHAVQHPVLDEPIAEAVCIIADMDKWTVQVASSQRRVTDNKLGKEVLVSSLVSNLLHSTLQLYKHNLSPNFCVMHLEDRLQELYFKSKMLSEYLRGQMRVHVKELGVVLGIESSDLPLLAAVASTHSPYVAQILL

[6] = molecular target: Protein fem-1 homolog B/Folliculin-interacting protein 1 (Homo sapiens, UniProt Q8TF40+Q9UK73); experiment: Inhibition of FEMIB/FNIP1 interaction in human HEK293T cells; assay type: cell-based
Sequence of Protein fem-1 homolog B/Folliculin-interacting protein 1 (Q8TF40 whole entry): as above
Sequence of Protein fem-1 homolog B/Folliculin-interacting protein 1 (Q9UK73 whole entry): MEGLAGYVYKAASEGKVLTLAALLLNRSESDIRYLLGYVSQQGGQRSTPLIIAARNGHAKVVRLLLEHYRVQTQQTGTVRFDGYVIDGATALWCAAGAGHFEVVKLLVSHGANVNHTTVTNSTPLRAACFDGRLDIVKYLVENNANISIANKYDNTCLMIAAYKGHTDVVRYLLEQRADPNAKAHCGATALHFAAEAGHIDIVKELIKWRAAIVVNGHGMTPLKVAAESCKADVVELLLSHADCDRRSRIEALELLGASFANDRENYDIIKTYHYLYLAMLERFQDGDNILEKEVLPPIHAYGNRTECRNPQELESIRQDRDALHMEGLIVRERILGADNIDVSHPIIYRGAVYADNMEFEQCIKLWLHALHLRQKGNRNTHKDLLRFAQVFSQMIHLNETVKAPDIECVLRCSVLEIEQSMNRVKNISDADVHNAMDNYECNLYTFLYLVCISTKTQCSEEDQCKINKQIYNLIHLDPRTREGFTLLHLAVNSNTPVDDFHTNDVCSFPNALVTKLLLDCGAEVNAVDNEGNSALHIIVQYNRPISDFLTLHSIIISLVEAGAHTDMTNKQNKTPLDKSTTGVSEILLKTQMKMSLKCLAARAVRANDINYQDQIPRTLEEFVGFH

[7] = molecular target: T1, Bromodomain-containing protein 4; experiment: Induction of BRD4 degradation in human HCT-116 cells assessed as downregulation of c-Myc expression; assay type: cell-based
SUD4 = experiment: Antiproliferative activity against human SU-DHL-4 cells assessed as reduction in cell viability measured after 48 hrs by MTT assay; assay type: functional
[8] = molecular target: T1, Bromodomain-containing protein 4; experiment: Induction of BRD4 degradation in human SU-DHL-4 measured after 72 hrs relative to control; assay type: cell-based
[9] = molecular target: T1, Bromodomain-containing protein 4; experiment: Induction of BRD4 degradation in human SU-DHL-4 measured after 72 hrs; assay type: cell-based
MDA-MB-231 = experiment: Antiproliferative activity against human MDA-MB-231 cells assessed as cell growth inhibition; assay type: functional
MDA-MB-468 = experiment: Antiproliferative activity against human MDA-MB-468 cells assessed as cell growth inhibition; assay type: functional
[10] = molecular target: T1, Bromodomain-containing protein 4; experiment: Induction of BRD4 degradation in human MDA-MB-468 cells at 0.5 uM measured at 48 hrs relative to control; assay type: cell-based
MV4-11 [11] = experiment: Cytotoxicity against human MV4-11 cells; assay type: functional, cell-based
[12] = molecular target: T1, Bromodomain-containing protein 4; experiment: Induction of BRD4 degradation in human HD-MB03 cells at 100 nM measured at 72 hrs relative to control; assay type: cell-based
[13] = molecular target: T1, Bromodomain-containing protein 4; experiment: Induction of BRD4 degradation in human MV4-11 cells measured after 24 hrs; assay type: cell-based
MV4-11 [14] = experiment: Cytotoxicity against human MV4-11 cells measured after 96 hrs; assay type: functional, cell-based; conditions: MV4-11, 96 h
[15] = molecular target: T1, Bromodomain-containing protein 4; experiment: Induction of BRD4 degradation in human HD-MB03 cells measured after 12 hrs; assay type: cell-based
[16] = molecular target: T1, Bromodomain-containing protein 4; experiment: Induction of BRD4 degradation in human MV4-11 cells measured after 12 hrs; assay type: cell-based

Emax [1]: 94%
DC50 [2]: 196 nM
DC50 [3]: 313 nM
DC50 [4]: 250 nM
SMILES: C#CCCCC(=O)N1CCOc2ccc(N(CCC#N)C(=O)CCl)cc21

DC50 [7]: 36 nM
SMILES: COc1cc(C(=O)NCCOCCOCCOCCNC(=O)C[C@@H]2N=C(c3ccc(Cl)cc3)c3c(sc(C)c3C)-n3c(C)nnc32)ccc1NC(=O)[C@@H]1N[C@@H](CC(C)(C)C)[C@](C#N)(c2ccc(Cl)cc2F)[C@H]1c1cccc(Cl)c1F
GC50 (SUD4): 25.17 µM

GI50 (MDA-MB-231): 130 nM
GI50 (MDA-MB-468): 280 nM
Emax [10]: 80%
SMILES: CCOC(=O)C[C@H](c1ccc(C)c(CN2C[C@H](C)Oc3ccccc3S2(=O)=O)c1)c1cc(OCCNC(=O)CNC(=O)C[C@H]2N=C(c3ccc(Cl)cc3)c3c(sc(C)c3C)-n3c(C)nnc32)c2c(c1)nnn2C

Continued, compound first:

SMILES: N#CCCN(C(=O)CCl)c1ccc2c(c1)OCCO2
IC50 [5]: 670 nM
IC50 [6]: 2200 nM

SMILES: Cc1sc2c(c1C)C(c1ccc(Cl)cc1)=N[C@@H](CC(=O)NCCOCCOCCNC(=O)c1cccc(S(=O)(=O)Nc3ccc(C)c4c(C#N)c[nH]c34)c1)c1nnc(C)n1-2
Emax [8]: 98%
DC50 [9]: 10.8 µM
GC50 (SUD4): 4.64 µM

SMILES: Cc1sc2c(c1C)C(c1ccc(Cl)cc1)=N[C@@H](CC(=O)NCCCCCNC(=O)COc1ccc(C3CCC(=O)NC3=O)cc1)c1nnc(C)n1-2 (stereo not given in full)
IC50 (MV4-11 [11]): 1.83 nM
Emax [12]: 87%
DC50 [13]: 0.16 nM
IC50 (MV4-11 [14]): 3 pM
DC50 [15]: 24 nM
DC50 [16]: 0.87 nM
